Experimental findings from ChEMBL document CHEMBL4308902, “Synthetic approaches to isocarbacyclin and analogues as potential neuroprotective agents against ischemic stroke” (Bioorg Med Chem, 2019) are described below.

Calls of active or inactive are those of the source. No cut-off for these calls is given here.

Data set [1] concerns Cortical neurone. Nature of the data set: Neuroprotection in mouse embryonic cortical neurons assessed as reduction in oxygen and glucose deprivation-induced cell death. The format is functional, cell-based.
In data set [2] the test system is Cortical neurone. Nature of the data set: Neuroprotection in mouse embryonic cortical neurons assessed as reduction in glucose deprivation-induced cell death. The format is functional, cell-based.
Data set [3] relates to Cortical neurone. Nature of the data set: Cytotoxicity against mouse embryonic cortical neurons assessed as reduction in cell viability. In kind it is cell-based.

For `C=C[C@@H]1[C@H]2CC(CCCCC(=O)O)=C[C@H]2C[C@H]1O`, the result with Cortical neurone [1] and with Cortical neurone [2] was inactive. In addition, the Activity result in the data set on Cortical neurone [3] is “Toxic”.
Take `CCCCCCCCCC/C=C/[C@@H]1[C@H]2CC(CCCCC(=O)O)=C[C@H]2C[C@H]1O`: the outcome in the data set on Cortical neurone [1] and in the data set on Cortical neurone [2] was inactive. The Activity entry with Cortical neurone [3] is reported as “Toxic”.
As for `CCCCCC/C=C/[C@@H]1[C@H]2CC(CCCCC(=O)O)=C[C@H]2C[C@H]1O`, the result with Cortical neurone [1] and in the data set on Cortical neurone [2] was inactive. Further, the Activity result with Cortical neurone [3] is “Toxic”.
For `CCCCC[C@H](O)/C=C/[C@@H]1[C@H]2CC(CCCCC(=O)O)=C[C@H]2C[C@H]1O`, the outcome in the data set on Cortical neurone [1] and in the data set with Cortical neurone [2] was inactive. Also, in the data set on Cortical neurone [3], the Activity entry is given as “Toxic”.
`O=C(O)CCCCC1=C[C@H]2C[C@@H](O)[C@H](/C=C/Cc3ccccc3)[C@H]2C1`: the outcome in the data set with Cortical neurone [1] and with Cortical neurone [2] was inactive. Further, the Activity result in the data set with Cortical neurone [3] was “Toxic”.
